The values below come from ChEMBL document CHEMBL1139627, “A new orally bioavailable dual adenosine A2B/A3 receptor antagonist with therapeutic potential” (Bioorg Med Chem Lett, 2005).

The target in series [1] is T1, Adenosine receptor A3 (Homo sapiens, UniProt P0DMS8).
T1 sequence (P0DMS8 whole entry): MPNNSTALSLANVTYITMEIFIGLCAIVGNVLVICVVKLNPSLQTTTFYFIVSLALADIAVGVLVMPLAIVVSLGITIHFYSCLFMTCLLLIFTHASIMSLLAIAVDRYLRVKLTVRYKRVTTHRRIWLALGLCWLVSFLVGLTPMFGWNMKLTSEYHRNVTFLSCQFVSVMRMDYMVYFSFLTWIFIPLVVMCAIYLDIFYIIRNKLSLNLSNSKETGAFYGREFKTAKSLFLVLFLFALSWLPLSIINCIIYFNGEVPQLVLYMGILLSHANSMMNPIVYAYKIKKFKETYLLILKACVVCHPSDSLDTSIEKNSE
Nature of the series: Displacement of [125I]-AB-MECA from human adenosine A3 receptors transfected in CHO cells. In kind it is cell-based.

The target of series [2] is Adenosine receptor A2a (Homo sapiens, UniProt P29274). Nature of the series: Displacement of [3H]ZM-241,385 from human adenosine A2a receptors transfected in HEK 293 cells. Type of series: cell-based, HEK293. (Loss of bound radioactivity is the signal in a displacement assay; it reports binding, not function.)
Chain of Adenosine receptor A2a (P29274 whole entry): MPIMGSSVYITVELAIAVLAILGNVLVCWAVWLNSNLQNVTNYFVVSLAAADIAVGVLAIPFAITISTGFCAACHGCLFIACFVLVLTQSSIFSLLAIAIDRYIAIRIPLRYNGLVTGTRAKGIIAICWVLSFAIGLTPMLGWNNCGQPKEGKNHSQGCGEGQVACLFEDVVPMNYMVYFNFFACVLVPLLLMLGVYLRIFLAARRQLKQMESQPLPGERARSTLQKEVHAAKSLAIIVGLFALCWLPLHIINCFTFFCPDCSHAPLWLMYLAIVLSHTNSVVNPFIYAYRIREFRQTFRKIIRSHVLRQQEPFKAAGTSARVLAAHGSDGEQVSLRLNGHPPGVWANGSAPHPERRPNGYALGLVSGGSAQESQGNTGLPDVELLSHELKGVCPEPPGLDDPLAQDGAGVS
Series [3] concerns the target T2, Adenosine receptor A2b (Homo sapiens) (UniProt P29275).
T2 sequence (whole entry): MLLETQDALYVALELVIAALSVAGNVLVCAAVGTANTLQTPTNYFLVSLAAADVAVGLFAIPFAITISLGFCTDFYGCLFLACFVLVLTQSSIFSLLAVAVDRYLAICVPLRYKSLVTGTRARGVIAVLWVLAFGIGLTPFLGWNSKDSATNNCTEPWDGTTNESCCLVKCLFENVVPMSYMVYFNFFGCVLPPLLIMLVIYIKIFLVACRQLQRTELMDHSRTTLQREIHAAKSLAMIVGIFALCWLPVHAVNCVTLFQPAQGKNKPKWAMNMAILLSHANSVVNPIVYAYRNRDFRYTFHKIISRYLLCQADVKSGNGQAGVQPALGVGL
The experiment in a line: Inhibition of luciferase production elicited by NECA by compound in CHO cells transfected with human adenosine A2b receptor and a luciferase expressing reporter plasmid in a reporter gene assay. Type of series: cell-based.

Series [4] has as its target T3, Adenosine receptor A1 (Homo sapiens, UniProt P30542).
T3 sequence (P30542 whole entry): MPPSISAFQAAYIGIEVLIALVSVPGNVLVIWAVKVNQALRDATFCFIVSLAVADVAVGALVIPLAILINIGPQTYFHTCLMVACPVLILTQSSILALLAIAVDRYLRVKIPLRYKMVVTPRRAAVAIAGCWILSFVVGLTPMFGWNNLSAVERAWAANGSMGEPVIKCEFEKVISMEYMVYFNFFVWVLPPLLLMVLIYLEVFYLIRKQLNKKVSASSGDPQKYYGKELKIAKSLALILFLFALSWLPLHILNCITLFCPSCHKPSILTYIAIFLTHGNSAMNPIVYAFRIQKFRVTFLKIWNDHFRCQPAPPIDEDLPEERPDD
Nature of the series: Displacement of [3H]DPCPX from human adenosine A1 receptors transfected in CHO cells. In kind it is cell-based.

Series [5] is described as follows: Half life of trhe compound after oral administration at 1 mL/kg concentration in wistar rat. In kind it is ADME, organism-based. Particulars: in vivo.
A short description of series [6]: Bioavailability of compound after oral administration at 1 mL/kg concentration in wistar rat. Type of series: ADME, organism-based. Particulars: in vivo, read-out: BAV.
The nature of series [7]: Volume abserved at study state after intra venous administration of 2:1 PEG200/0.1 M phosphate buffer at 0.1 mL/kg concentration in wistar rat. Type of series: ADME, organism-based. The following applies: in vivo, iv, read-out: Vss.
Series [8] is described as follows: Clearance in wistar rat was determined by intra venous administration of 2:1 PEG200/0.1 M phosphate buffer at 0.1 mL/kg concentration. Type of series: ADME, organism-based. The following applies: in vivo, iv.
Series [9] can be described thus: Half life in wistar rat was determined by intra venous administration of 2:1 PEG200/0.1 M phosphate buffer at 0.1 mL/kg concentration. Type of series: ADME. The following applies: in vivo, iv.
Series [10] can be described thus: Time to reach Cmax after oral administration at 1 mL/kg concentration in wistar rat. Type of series: ADME, organism-based. The following applies: in vivo.
Series [11] can be described thus: Maximum concentration in wistar rat at 1 mL/kg concentration of compound after oral administration. In kind it is ADME, organism-based. More on the design: dose 1 mL/kg, route oral. The following applies: in vivo.

Molecules are shown by their SMILES. pKi: −log10 of the molar value.

The pKi is the Ki on a negative log10 scale, so that one unit is a factor of ten. One may read the half-life as the time needed for the level to fall by half in the phase considered. A lower half-life goes with fast loss. As usually defined, the clearance is the volume of plasma or blood freed of the substance per unit of time. A higher clearance goes with a high capacity for elimination. The Tmax is the time from dosing to the highest level. By Cmax is commonly meant the highest concentration seen after dosing.

With `N#Cc1cccc(-c2nc(Nc3cnccn3)sc2-n2ccnc2)c1`, the pKi was 7.96 in series [1], 6.46 in series [2] and 7.34 in [4]. In addition, the Kb in series [3] turned out to be 7 nM.
The like results for `Cc1cccc(Nc2nc(-c3cccc(C#N)c3)c(-n3ccnc3)s2)n1` were, in that order, 7.36, 5.57, 8.10 and 92 nM.
Consider `Cc1nccn1-c1sc(Nc2cnccn2)nc1-c1cccc(C#N)c1`, for which the half-life is 191 min in series [5] and 29 min in series [9]. Further, the bioavailability in [6] came out at 30.2%. For the same molecule, the Vd in series [7] is 3.02 L/kg. For the same molecule, the pKi in series [1] was 8.00; in series [2], 5.78; in series [4], 6.71. This molecule had a clearance in series [8] of 94.4 mL/min/kg. In [3], this molecule returned a Kb of 3 nM. Moreover, the Tmax in [10] is 39.3 min. This molecule gave a peak concentration (Cmax) in series [11] of 560 nM.
As for `Cc1cccc(Nc2nc(-c3cccc(C#N)c3)c(-n3cncn3)s2)n1`, the results for the negative-log Ki (pKi) in [1], in series [2] and in series [4] were 7.43, under 5.00 and under 5.00, respectively. In series [3], this molecule came in with a Kb of 20 nM.
Turning to `N#Cc1cccc(-c2nc(Nc3cnccn3)sc2-n2cncn2)c1`, the negative logarithm of the Ki (pKi) in [2] was 5.45; in [4] it was 5.68. The Kb in series [3] turned out to be 12 nM.
With `N#Cc1cccc(-c2nc(Nc3ccncc3)sc2-n2cncn2)c1`, the pKi is 6.52 in series [1] and 5.38 in [2]. In series [3], this molecule showed a Kb of 62 nM.
As for `Cc1cccc(Nc2nc(-c3cccc(C#N)c3)c(-n3ccnc3C)s2)n1`, the figures for the negative logarithm of the Ki (pKi) in series [1], in series [2] and in series [4] were 6.38, 6.76 and 6.65, respectively. For the same molecule, the Kb in [3] amounted to 10 nM.
Take `N#Cc1cccc(-c2nc(Nc3ccccn3)sc2-n2cncn2)c1`: the negative-log Ki (pKi) in series [1] was 7.62; in [2] it was 5.69; in [4] it was 5.75. Moreover, in [3], the Kb is 53 nM.
With `N#Cc1cccc(-c2nc(Nc3cccnc3)sc2-n2ccnc2)c1`, the values for the pKi in series [1], in [2] and in series [4] were 6.91, 5.57 and 6.25, respectively. In series [3], this molecule had a Kb of 92 nM.
As to `CC(=O)Nc1nc(-c2cccc(C#N)c2)c(-n2cncn2)s1`, the negative logarithm of the Ki (pKi) in [1] was 6.87; in [2] it was 5.25; in series [4], 5.55. For the same molecule, in series [3], the Kb is 365 nM.
The like results for `N#Cc1cccc(-c2nc(Nc3cccnc3)sc2-n2cncn2)c1` were, in that order, 6.16, 5.59, 5.82 and 86 nM.
